The record followed here is ChEMBL document CHEMBL4145553, “Design, synthesis, and biological evaluation of novel amide and hydrazide based thioether analogs targeting Histone deacteylase (HDAC) enzymes” (Eur J Med Chem, 2018).

Holding throughout (type): functional
One assay has as its system Hs-578T. In words: Growth inhibition of human Hs 578T cells assessed as cell growth at 10^-4 M incubated for 48 hrs by sulforhodamine B assay relative to control. To be noted: read-out: Activity.
A further assay concerns NCI-H522. In words: Growth inhibition of human NCI-H522 cells assessed as cell growth at 10^-4 M incubated for 48 hrs by sulforhodamine B assay relative to control. To be noted: NCI-H522, 48 h, read-out: Activity.
In another assay the test system is COLO 205. In words: Growth inhibition of human COLO205 cells assessed as cell growth at 10^-5 M incubated for 48 hrs by sulforhodamine B assay relative to control. To be noted: COLO 205, 48 h, read-out: Activity.
The subject of another assay is M14. In words: Growth inhibition of human M14 cells assessed as cell growth at 10^-4 M incubated for 48 hrs by sulforhodamine B assay relative to control. To be noted: M14, 48 h, read-out: Activity. (The SRB assay estimates cell density from bound dye.)

In the case of `CCS/C(Nc1ccccc1)=C(\C#N)C(=O)Nc1ccc(OC)cc1`, the growth at 100 µM in the assay on Hs-578T is 16%; with NCI-H522, -11%. Further, the growth at 10 µM with COLO 205 was 1%.

With `CCS/C(Nc1ccccc1)=C(\C#N)C(=O)N/N=C\c1ccc(Cl)cc1Cl`, in the assay on M14, the growth at 100 µM is -3%.
